Measured values reported in BindingDB's records for doi:10.1021/bi200552p (Astrazeneca Pharmaceuticals, 2011).
Values joined by “and” are separate entries in the source; they are usually repeats but may differ in a detail not shown here. Equal entries are not always repeated.

Target: T1, Fatty-acid amide hydrolase 1 (Homo sapiens, UniProt O00519)
T1 sequence (O00519 whole entry): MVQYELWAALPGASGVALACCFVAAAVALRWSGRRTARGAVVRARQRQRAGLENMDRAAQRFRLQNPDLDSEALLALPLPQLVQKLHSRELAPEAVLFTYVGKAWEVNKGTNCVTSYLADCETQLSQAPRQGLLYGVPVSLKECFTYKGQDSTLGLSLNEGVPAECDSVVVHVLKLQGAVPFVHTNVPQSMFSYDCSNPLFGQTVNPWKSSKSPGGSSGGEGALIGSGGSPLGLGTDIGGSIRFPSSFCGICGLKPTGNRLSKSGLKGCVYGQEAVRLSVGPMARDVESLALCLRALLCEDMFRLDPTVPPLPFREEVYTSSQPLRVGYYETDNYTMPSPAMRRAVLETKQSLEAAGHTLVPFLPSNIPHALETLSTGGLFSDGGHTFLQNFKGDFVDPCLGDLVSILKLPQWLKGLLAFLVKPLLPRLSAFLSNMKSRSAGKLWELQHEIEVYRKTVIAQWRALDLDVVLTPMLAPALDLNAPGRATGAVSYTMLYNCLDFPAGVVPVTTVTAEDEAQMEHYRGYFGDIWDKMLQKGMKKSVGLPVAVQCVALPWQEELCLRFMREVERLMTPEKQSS
Experiment: Inhibition Assay
Settings: pH 8; 22 °C
Description: the enzyme activity of recombinant human FAAH was measured according to published procedures with minor modifications by either a fluorescent assay using D-AMC or a radioactive assay using tritium-labeled anandamide (3H-anandamide)51 as substrate.

- IC50: 2 nM and 2.1 nM and 2.3 nM and 2.5 nM and 5.1 nM and 3.8 nM
Structure (SMILES): COc1cccc2sc(-c3ccc(NC(=O)C4CCN(S(=O)(=O)c5cccs5)CC4)cc3)nc12 [Benzothiazole-based analogue, 1]
